Data taken from patent US6548540B2, “Method of treating cancer using dithiocarbamate derivatives” (Charlotte-Mecklenburg Hospital Authority, priority 1998, dated 2003).
“Also recorded” adds a separate entry of the source.

Columns and labels:
Type in all cases: cell-based, human
[1] = system: AP-1; experiment: EMSA of treated cells, AP-1 DNA binding; conditions: disulfiram plus copper; 24 hours; data not shown
Protocol: Nuclear protein was isolated and DNA binding reactions were performed as previously described in detail (See, […], et al., “Dehydroepiandrosterone and analogs inhibit DNA binding of AP-1 and airway smooth muscle proliferation,” J. Pharmacol. Exper. Ther. 285:[…] (1998); T. Kennedy, et al., “Copper-dependent inflammation and nuclear factor-κB activation by particulate air pollution,” Am. J. Respir. Cell Mol. Biol. 19:366-378 (1998)). Monolayers were washed twice in cold DPBS and equilibrated 10 minutes on ice with 0.7 ml cold cytoplasmic extraction buffer, CEB (10 mM Tris, pH 7.9, 60 mM KCl, 1 mM EDTA, 1 mM DTT) with protease inhibitors, PI (1 mM Pefabloc, 50 μg/ml antipain, 1 μg/ml leupeptin, 1 μg/ml pepstatin, 40 μg/ml bestatin, 3 μg/ml E-64 and 100 μg/ml chymostatin). The detergent Nonidet P-40 (NP-40) was added to a final concentration of 0.1% and cells were dislodged with a cell scraper. Nuclei were pelleted by centrifugation and washed with CEB/PI. […]

[2] = system: transcription factor binding to CRE (cyclic AMP response element); experiment: EMSA of nuclear protein from treated M1619 cells, binding to CRE
Protocol: This dose was chosen to approximate the steady state plasma and tissue concentrations of drug in human subjects on chronic therapy with this agent. Disulfiram was solubilized in dimethylsulfoxide (DMSO) so that the final concentration of DMSO was less than 0.3-0.5%. Equal volumes of DMSO were added to control experiments. Nuclear protein was harvested and electrophoretic mobility gel shift assays were performed using DNA consensus binding sequence for the cyclic-AMP responsive element (CRE) as outlined below. […] Nuclear protein was isolated and DNA binding reactions were performed as previously described in detail (See, […], et al., “Dehydroepiandrosterone and analogs inhibit DNA binding of AP-1 and airway smooth muscle proliferation,” J. Pharmacol. Exper. Ther. 285:[…] (1998); T. Kennedy, et al., “Copper-dependent inflammation and nuclear factor-κB activation by particulate air pollution,” Am. J. Respir. Cell Mol. Biol. 19:366-378 (1998)). Monolayers were washed twice in cold DPBS and equilibrated 10 minutes on ice with 0.7 ml cold cytoplasmic extraction buffer, CEB (10 mM Tris, pH 7.9, 60 mM KCl, 1 mM EDTA, 1 mM DTT) with protease inhibitors, PI (1 mM Pefabloc, 50 μg/ml antipain, 1 μg/ml leupeptin, 1 μg/ml pepstatin, 40 μg/ml bestatin, 3 μg/ml E-64 and 100 μg/ml chymostatin). The detergent Nonidet P-40 (NP-40) was added to a final concentration of 0.1% and cells were dislodged with a cell scraper. Nuclei were pelleted by centrifugation and washed with CEB/PI. […] DNA-protein binding reactions were performed with 2 μg of nuclear protein (as determined by the Pierce method) and 30-80,000 cpm of ^32P-end-labelled double-stranded DNA probe in 10 mM Tris-HCl, pH 7.5, 50 mM NaCl, 0.5 mM EDTA, 0.5 mM DTT (except where indicated), 1 mM MgCl2, 50 μg/ml poly dI-dC, and 4% glycerol. […] Gels were dried and analyzed by autoradiography at -80° C. using an image intensifier screen. […]

[3] = system: cyclin B1; experiment: Immunoblot for cyclin B1; conditions: disulfiram plus copper; data not shown
Protocol: Cells were lysed and proteins were isolated and quantitated by immunoassay as previously detailed using 2 μg/ml of primary rabbit polyclonal antibodies against human bcl-2, p53, p21^WAF1/CiP1, cyclin A and cyclin B1, and peroxidase-labeled donkey polyclonal anti-rabbit IgG. Cells were placed on ice, washed twice with cold DPBS, scraped into 0.5 ml boiling buffer (10% [vol/vol] glycerol and 2% [wt/vol] sodium dodecyl sulfate [SDS] in 83 mM Tris, pH 6.8) and sheared by four passages through a pipette. Aliquots were removed for protein determination, using the BCA protein assay (Pierce). After 10% β-mercaptoethanol and 0.05% bromophenol blue were added, lysates were boiled for 5 min and stored at −80° C. until immunoblotting was performed. Proteins in defrosted samples were separated by SDS-polyacrylamide gel electrophoresis on 12% polyacrylamide gels (15 μg protein/lane) and electrotransferred to 0.45 μm Hybond ECL nitrocellulose membranes (Amersham Life Sciences) using the wet transblot method in transfer buffer (0.025 M Tris, 0.192 M glycine, 2.6 mM SDS, and 20%[vol/vol] methanol; pH 8.8) at 100 volts for 1 hour. […] Immunoblots were rinsed again as above and detected via an enhanced chemiluminescence method (ECL Western blotting detection system, Amersham Life Science, Buckinghamshire, England). […]

CCN(CC)C(=S)SSC(=S)N(CC)CC [Disulfiram, tetraethylthiuram disulfide]
DNA binding of AP-1 [1]: inhibited | DNA-binding to CRE ([2]; 5 μM disulfiram alone, treated cells): slightly reduced | transcription factor binding to CRE ([2]; 5 μM disulfiram and 1.6 μM cupric sulfate, cells treated 6, 12 or 24 hour): substantially interrupts; also recorded: eliminated | DNA binding of the upper ATF-2 containing complex II (densitometry) ([2]; disulfiram 5 μM plus CuSO4 1.6 μM, 8 hours, n=4): by half | levels of B1 [3]: remained unchanged
